Assay results: US20110086759A1, “CHEMICAL COMPOUNDS” (SYNGENTA CROP PROTECTION, INC., priority 2007, published 2011)

Tests used:
Assay type in all cases: in vivo
[1] = tested on: Alopecurus myosuroides (ALOMY); assay: Pre-emergence biological efficacy, glasshouse pot test; conditions: 312 h, pre-emergence, 1,000 g/ha, evaluated after 13 days (100=total damage; 0=no damage), read-out: Percentage damage ALOMY
In short: (§1)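 Test compound, formulated in acetone/water (50:50) containing 0.5% Tween 20 and diluted into an aqueous spray, was applied at 1000 or 250 g/ha to pots sown one day earlier. Injury was rated after 13 days, 100 meaning total damage.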

[2] = tested on: Amaranthus retoflexus (AMARE); assay: as above; conditions: Amaranthus retroflexus, 312 h; pre-emergence, 1,000 g/ha, evaluated after 13 days (100=total damage; 0=no damage); read-out: Percentage damage AMARE
In short: as §1

[3] = tested on: Echinochloa crus-galli (ECHCG); assay: as above; conditions: 312 h, pre-emergence, 1,000 g/ha, evaluated after 13 days (100=total damage; 0=no damage), read-out: Percentage damage ECHCG
In short: as §1

[4] = tested on: Ipomea hederaceae (IPOHE); assay: as above; conditions: Ipomoea hederacea, 312 h; pre-emergence, 1,000 g/ha, evaluated after 13 days (100=total damage; 0=no damage); read-out: Percentage damage IPOHE
In short: as §1

Setaria faberi (SETFA) [5] = assay: as above; conditions: 312 h, pre-emergence, 1,000 g/ha, evaluated after 13 days (100=total damage; 0=no damage), read-out: Percentage damage SETFA
In short: as §1

Solanum nigrum (SOLNI) [6] = assay: as above; conditions: 312 h, pre-emergence, 1,000 g/ha, evaluated after 13 days (100=total damage; 0=no damage), read-out: Percentage damage SOLNI
In short: as §1

[7] = tested on: Alopecurus myosuroides (ALOMY); assay: Post-emergence biological efficacy, glasshouse pot test; conditions: 312 h, post-emergence, 1,000 g/ha, evaluated after 13 days (100=total damage; 0=no damage), read-out: Percentage damage caused to weed species, ALOMY
In short: (§2)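 Plants were sown in standard soil and grown 8 days in a glasshouse (24/16° C. day/night, 14 hours light, 65% humidity), then sprayed post-emergence at 1000 or 250 g/ha from acetone/water (50:50) with 0.5% Tween 20. Damage was scored visually after 13 days (0 = none, 100 = total).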

[8] = tested on: Amaranthus retoflexus (AMARE); assay: as above; conditions: Amaranthus retroflexus, 312 h; post-emergence, 1,000 g/ha, evaluated after 13 days (100=total damage; 0=no damage); read-out: Percentage damage caused to weed species, AMARE
In short: as §2

[9] = tested on: Echinochloa crus-galli (ECHCG); assay: as above; conditions: 312 h, post-emergence, 1,000 g/ha, evaluated after 13 days (100=total damage; 0=no damage), read-out: Percentage damage caused to weed species, ECHCG
In short: as §2

[10] = tested on: Ipomea hederaceae (IPOHE); assay: as above; conditions: Ipomoea hederacea, 312 h; post-emergence, 1,000 g/ha, evaluated after 13 days (100=total damage; 0=no damage); read-out: Percentage damage caused to weed species, IPOHE
In short: as §2

Setaria faberi (SETFA) [11] = assay: as above; conditions: 312 h, post-emergence, 1,000 g/ha, evaluated after 13 days (100=total damage; 0=no damage), read-out: Percentage damage caused to weed species, SETFA
In short: as §2

Solanum nigrum (SOLNI) [12] = assay: as above; conditions: 312 h, post-emergence, 1,000 g/ha, evaluated after 13 days (100=total damage; 0=no damage), read-out: Percentage damage caused to weed species, SOLNI
In short: as §2

Row | SMILES | pest or weed control at 1000 g/ha [1] | pest or weed control at 1000 g/ha [2] | pest or weed control at 1000 g/ha [3] | pest or weed control at 1000 g/ha [4] | pest or weed control at 1000 g/ha (Setaria faberi (SETFA) [5]) | pest or weed control at 1000 g/ha (Solanum nigrum (SOLNI) [6]) | pest or weed control at 1000 g/ha [7] | pest or weed control at 1000 g/ha [8] | pest or weed control at 1000 g/ha [9] | pest or weed control at 1000 g/ha [10] | pest or weed control at 1000 g/ha (Setaria faberi (SETFA) [11]) | pest or weed control at 1000 g/ha (Solanum nigrum (SOLNI) [12])
1 | O=C(O)c1nc(C2CC2)nc(NCc2c(Cl)cccc2Cl)c1Cl [Compound 1-104, 5-Chloro-2-cyclopropyl-4-(2,6-dichlorophenyl-methylamino)-pyrimidine-6-carboxylic acid] | 0% | 0% | 0% | 0% | 0% | 0% | 0% | 60% | 0% | 60% | 0% | 50%
2 | COc1ccc(CNc2nc(C3CC3)nc(C(=O)O)c2Cl)c(OC)c1 [Compound 1-110, 5-Chloro-2-cyclopropyl-4-(2,4-dimethoxyphenyl-methylamino)-pyrimidine-6-carboxylic acid] | 40% | 100% | 20% | 90% | 30% | 60% | 30% | 100% | 50% | 80% | 80% | 80%
3 | Cc1ccc(CNc2nc(C3CC3)nc(C(=O)O)c2Cl)o1 [Compound 1-135, 5-Chloro-2-cyclopropyl-4-(5-methylfuran-2-ylmethylamino)-pyrimidine-6-carboxylic acid] | 80% | 100% | 90% | 100% | 90% | 100% | 80% | 100% | 70% | 100% | 80% | 100%
4 | Cc1cccnc1CNc1nc(C2CC2)nc(C(=O)O)c1Cl [Compound 1-153, 5-Chloro-2-cyclopropyl-4-(3-methylpyridin-2-ylmethylamino)-pyrimidine-6-carboxylic acid] | 40% | 100% | 50% | 100% | 70% | 90% | 50% | 100% | 60% | 70% | 90% | 90%
5 | CC(Nc1nc(C2CC2)nc(C(=O)O)c1Cl)c1ccc(Cl)cc1 (stereo not drawn) [Compound 1-176, 5-Chloro-4-[1-(4-chlorophenyl)ethyl-amino]-2-cyclopropyl-pyrimidine-6-carboxylic acid] | 0% | 0% | 0% | 0% | 0% | 0% | 10% | 40% | 10% | 40% | 20% | 60%
6 | COC(=O)c1nc(C2CC2)nc(NC2CC2)c1Cl [Compound 4-1, 5-Chloro-2-cyclopropyl-4-cyclopropylamino-6-methoxycarbonyl-pyrimidine] | 40% | 100% | 50% | 90% | 60% | 100% | 60% | 100% | 60% | 90% | 80% | 100%
7 | COC(=O)c1nc(C2CC2)nc(NC2(c3ccc(Cl)cc3)CC2)c1Cl [Compound 4-5, 5-Chloro-4-[1-(4-chlorophenyl)cyclo-propylamino]-2-cyclopropyl-6-methoxycarbonyl-pyrimidine] | 0% | 40% | 0% | 40% | 0% | 0% | 20% | 100% | 0% | 70% | 40% | 80%
8 | COC(=O)c1nc(C2CC2)nc(NC2(c3ccc(Cl)cc3Cl)CC2)c1Cl [Compound 4-6] | 0% | 40% | 0% | 10% | 0% | 20% | 20% | 100% | 20% | 60% | 0% | 40%
9 | COC(=O)c1nc(C2CC2)nc(NC2(c3ccccn3)CC2)c1Cl [Compound 4-10, 5-Chloro-2-cyclopropyl-6-methoxycarbonyl-4-(1-pyrid-2-ylcyclo-propylamino)-pyrimidine] | 0% | 30% | 0% | 80% | 0% | 20% | 20% | 60% | 0% | 50% | 0% | 40%
10 | COC(=O)c1nc(C2CC2)nc(NC2(c3cccc(C)n3)CC2)c1Cl [Compound 4-13, 5-Chloro-2-cyclopropyl-6-methoxycarbonyl-4-[1-(6-methylpyrid-2-yl)-cyclopropyl-amino]-pyrimidine] | 0% | 20% | 0% | 50% | 0% | 20% | 20% | 60% | 0% | 60% | 0% | 50%
11 | COC(=O)c1nc(C2CC2)nc(NC2(COc3ccc(Cl)cc3)CC2)c1Cl [Compound 4-16, 5-Chloro-4-[1-(4-chlorophenoxy-methyl)cyclo-propylamino]-2-cyclopropyl-6-methoxycarbonyl-pyrimidine] | 0% | 30% | 0% | 10% | 0% | 10% | 20% | 100% | 40% | 100% | 60% | 90%
